Measured values from PubChem BioAssay AID2060884 (Molecular Pharmacology Branch, DTP, NCI, 2025).

Test system: NCI-H929 complex spheroids, viability % test/control
Test: Anticancer human tumor NCI-H929 cell line growth inhibition [RAS];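 further: compound exposure lasted seven days before viability was read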;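 on viability, T/C: 100% = DMSO vehicle control viability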
Settings: for viability, T/C: stronger effect = lower value; active means viability on the fitted dose curve at most 10% of control; inactive means the rest
Procedure, shortened: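 Tumour cells grown as complex spheroids with HUVEC endothelial cells and mesenchymal stem cells, treated with RAS pathway inhibitor combinations. Each agent spans half-log steps from near clinical Cmax, or 10 microM where Cmax is unknown.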

[1] = curve of first compound, second compound 0.000949 µM
[2] = curve of first compound, second compound 0.003 µM
[3] = curve of first compound, second compound 0.00949 µM
[4] = curve of first compound, second compound 0.03 µM
[5] = curve of first compound, second compound 0.0949 µM
[6] = curve of first compound, second compound 0.3 µM
[7] = second compound 0.000949 µM, first compound 0.0316 µM
[8] = second compound 0.000949 µM, first compound 0.1 µM
[9] = second compound 0.000949 µM, first compound 0.316 µM
[10] = second compound 0.000949 µM, first compound 1 µM
[11] = second compound 0.003 µM, first compound 0.0316 µM
[12] = second compound 0.003 µM, first compound 0.1 µM
[13] = second compound 0.003 µM, first compound 0.316 µM
[14] = second compound 0.003 µM, first compound 1 µM
[15] = second compound 0.00949 µM, first compound 0.0316 µM
[16] = second compound 0.00949 µM, first compound 0.1 µM
[17] = second compound 0.00949 µM, first compound 0.316 µM
[18] = second compound 0.00949 µM, first compound 1 µM
[19] = second compound 0.03 µM, first compound 0.0316 µM
[20] = second compound 0.03 µM, first compound 0.1 µM
[21] = second compound 0.03 µM, first compound 0.316 µM
[22] = second compound 0.03 µM, first compound 1 µM
[23] = second compound 0.0949 µM, first compound 0.0316 µM
[24] = second compound 0.0949 µM, first compound 0.1 µM
[25] = second compound 0.0949 µM, first compound 0.316 µM
[26] = second compound 0.0949 µM, first compound 1 µM
[27] = second compound 0.3 µM, first compound 0.0316 µM
[28] = second compound 0.3 µM, first compound 0.1 µM
[29] = second compound 0.3 µM, first compound 0.316 µM
[30] = second compound 0.3 µM, first compound 1 µM

O=C(c1ccc(F)c(F)c1Nc1ccc(I)cc1F)N1CC(O)([C@@H]2CCCCN2)C1 + C#Cc1c(F)ccc2cc(O)cc(-c3ncc4c(N5CC6CCC(C5)N6)nc(OCC56CCCN5CC(F)C6)nc4c3F)c12
> 1 µM: IC50 (curve of first compound, second compound 0.0316 µM) | IC50 (curve of first compound, second compound 0.1 µM) | IC50 (curve of first compound, second compound 0.316 µM) | IC50 (curve of first compound, second compound 1 µM)
0.822 µM: IC50 (curve of first compound, second compound 3.16 µM)
inactive: viability, T/C (second compound 0.0316 µM, first compound 0.00316 µM) 83.7% | viability, T/C (second compound 0.0316 µM, first compound 0.01 µM) 91.4% | viability, T/C (second compound 0.0316 µM, first compound 0.0316 µM) 84.5% | viability, T/C (second compound 0.0316 µM, first compound 0.1 µM) 91.7% | viability, T/C (second compound 0.0316 µM, first compound 0.316 µM) 113% | viability, T/C (second compound 0.0316 µM, first compound 1 µM) 60.2% | viability, T/C (second compound 0.1 µM, first compound 0.00316 µM) 96.5% | viability, T/C (second compound 0.1 µM, first compound 0.01 µM) 91.3% | viability, T/C (second compound 0.1 µM, first compound 0.0316 µM) 84.4% | viability, T/C (second compound 0.1 µM, first compound 0.1 µM) 98.7% | viability, T/C (second compound 0.1 µM, first compound 0.316 µM) 114% | viability, T/C (second compound 0.1 µM, first compound 1 µM) 60% | viability, T/C (second compound 0.316 µM, first compound 0.00316 µM) 95% | viability, T/C (second compound 0.316 µM, first compound 0.01 µM) 91% | viability, T/C (second compound 0.316 µM, first compound 0.0316 µM) 82.3% | viability, T/C (second compound 0.316 µM, first compound 0.1 µM) 95% | viability, T/C (second compound 0.316 µM, first compound 0.316 µM) 115% | viability, T/C (second compound 0.316 µM, first compound 1 µM) 54% | viability, T/C (second compound 1 µM, first compound 0.00316 µM) 90.8% | viability, T/C (second compound 1 µM, first compound 0.01 µM) 92.7% | viability, T/C (second compound 1 µM, first compound 0.0316 µM) 85.4% | viability, T/C (second compound 1 µM, first compound 0.1 µM) 93.5% | viability, T/C (second compound 1 µM, first compound 0.316 µM) 116% | viability, T/C (second compound 1 µM, first compound 1 µM) 50.6% | viability, T/C (second compound 3.16 µM, first compound 0.00316 µM) 90.2% | viability, T/C (second compound 3.16 µM, first compound 0.01 µM) 91.2% | viability, T/C (second compound 3.16 µM, first compound 0.0316 µM) 81% | viability, T/C (second compound 3.16 µM, first compound 0.1 µM) 94.5% | viability, T/C (second compound 3.16 µM, first compound 0.316 µM) 118% | viability, T/C (second compound 3.16 µM, first compound 1 µM) 40.7% | viability, T/C (second compound 10 µM, first compound 0.00316 µM) 94% | viability, T/C (second compound 10 µM, first compound 0.01 µM) 94.1% | viability, T/C (second compound 10 µM, first compound 0.0316 µM) 90.2% | viability, T/C (second compound 10 µM, first compound 0.1 µM) 95.4% | viability, T/C (second compound 10 µM, first compound 0.316 µM) 115% | viability, T/C (second compound 10 µM, first compound 1 µM) 14.8%
0.614 µM: IC50 (curve of first compound, second compound 10 µM)

CCC(CC)c1cc(NC2CCC(N)C2)n2nccc2n1 (stereo not drawn) + CCn1c(-c2cccnc2C(C)OC)c2c3cc(ccc31)N1CCOC(CC(NC(=O)C(C(C)C)N(C)C(=O)C3(F)CCN(C(=O)C#CC(C)(C)N(C)C)CC3)C(=O)N3CCCC(N3)C(=O)OCC(C)(C)C2)C1
1.4 µM: IC50 [5]
1.34 µM: IC50 [4]
1.57 µM: IC50 [2]
1.54 µM: IC50 [1] | IC50 [3]
inactive: viability, T/C [7] 102% | viability, T/C [8] 92.6% | viability, T/C [9] 92.5% | viability, T/C [10] 79.5% | viability, T/C [11] 100% | viability, T/C [12] 98.8% | viability, T/C [13] 93.5% | viability, T/C [14] 82.1% | viability, T/C [15] 102% | viability, T/C [16] 96.5% | viability, T/C [17] 92.5% | viability, T/C [18] 80.1% | viability, T/C [19] 97.3% | viability, T/C [20] 93.8% | viability, T/C [21] 93.5% | viability, T/C [22] 67% | viability, T/C [23] 98.1% | viability, T/C [24] 96.4% | viability, T/C [25] 89.2% | viability, T/C [26] 70.4% | viability, T/C [27] 102% | viability, T/C [28] 96.7% | viability, T/C [29] 94.3% | viability, T/C [30] 55.1%
1.11 µM: IC50 [6]
active: viability, T/C (second compound 0.000949 µM, first compound 3.16 µM) 0.2% | viability, T/C (second compound 0.000949 µM, first compound 10 µM) 0.2% | viability, T/C (second compound 0.003 µM, first compound 3.16 µM) 0.2% | viability, T/C (second compound 0.003 µM, first compound 10 µM) 0.19% | viability, T/C (second compound 0.00949 µM, first compound 3.16 µM) 0.2% | viability, T/C (second compound 0.00949 µM, first compound 10 µM) 0.18% | viability, T/C (second compound 0.03 µM, first compound 3.16 µM) 0.19% | viability, T/C (second compound 0.03 µM, first compound 10 µM) 0.2% | viability, T/C (second compound 0.0949 µM, first compound 3.16 µM) 0.22% | viability, T/C (second compound 0.0949 µM, first compound 10 µM) 0.22% | viability, T/C (second compound 0.3 µM, first compound 3.16 µM) 0.25% | viability, T/C (second compound 0.3 µM, first compound 10 µM) 0.22%

C=CC(=O)N1CCN(c2nc(OCC3CCCN3C)nc3c(F)c(-c4nc(N)cc(C)c4C(F)(F)F)c(Cl)cc23)C(C)C1 (stereo not drawn) + CCn1c(-c2cccnc2C(C)OC)c2c3cc(ccc31)N1CCOC(CC(NC(=O)C(C(C)C)N(C)C(=O)C3(F)CCN(C(=O)C#CC(C)(C)N(C)C)CC3)C(=O)N3CCCC(N3)C(=O)OCC(C)(C)C2)C1
> 1 µM: IC50 [1] | IC50 [2] | IC50 [3] | IC50 [4] | IC50 [5] | IC50 [6]
inactive: viability, T/C (second compound 0.000949 µM, first compound 0.00316 µM) 104% | viability, T/C (second compound 0.000949 µM, first compound 0.01 µM) 103% | viability, T/C [7] 103% | viability, T/C [8] 104% | viability, T/C [9] 102% | viability, T/C [10] 105% | viability, T/C (second compound 0.003 µM, first compound 0.00316 µM) 104% | viability, T/C (second compound 0.003 µM, first compound 0.01 µM) 105% | viability, T/C [11] 101% | viability, T/C [12] 102% | viability, T/C [13] 107% | viability, T/C [14] 104% | viability, T/C (second compound 0.00949 µM, first compound 0.00316 µM) 104% | viability, T/C (second compound 0.00949 µM, first compound 0.01 µM) 101% | viability, T/C [15] 106% | viability, T/C [16] 107% | viability, T/C [17] 106% | viability, T/C [18] 105% | viability, T/C (second compound 0.03 µM, first compound 0.00316 µM) 102% | viability, T/C (second compound 0.03 µM, first compound 0.01 µM) 99.7% | viability, T/C [19] 106% | viability, T/C [20] 105% | viability, T/C [21] 106% | viability, T/C [22] 107% | viability, T/C (second compound 0.0949 µM, first compound 0.00316 µM) 102% | viability, T/C (second compound 0.0949 µM, first compound 0.01 µM) 103% | viability, T/C [23] 106% | viability, T/C [24] 104% | viability, T/C [25] 107% | viability, T/C [26] 104% | viability, T/C (second compound 0.3 µM, first compound 0.00316 µM) 102% | viability, T/C (second compound 0.3 µM, first compound 0.01 µM) 104% | viability, T/C [27] 106% | viability, T/C [28] 107% | viability, T/C [29] 107% | viability, T/C [30] 103%

NC1c2ccccc2OC12CCN(c1cnc3c(N4CCCc5ncccc54)n[nH]c3n1)CC2 (stereo not drawn)
inactive: viability, T/C (compound 0.0316 µM) 104% [middle of 4 runs] | viability, T/C (compound 0.1 µM) 99.1% [middle of 4 runs] | viability, T/C (compound 0.316 µM) 104% [middle of 4 runs] | viability, T/C (compound 1 µM) 102% [middle of 4 runs] | viability, T/C (compound 3.16 µM) 101% [middle of 4 runs] | viability, T/C (compound 10 µM) 69.9% [middle of 4 runs]
> 10 µM: IC50 (curve of compound)
